Ends that are not written are not given here.
Tests used:
Het-1A cell line = assay: cells
Method: (§1) The human normal vaginal epithelial cell line VK2/E6E7 (ATCC® CRL-2616™) and human normal esophagus epithelial cell line Het-1A (ATCC® CRL-2692™) were used for cytotoxicity testing. VK2/E6E7 cell line was grown in Keratinocyte-Serum Free medium (GIBCO-BRL 17005-042) supplemented with 0.1 ng/ml human recombinant EGF, 0.05 mg/ml bovine pituitary extract, and 44.1 mg/L calcium chloride. […] Cell viability was measured by using CellTiter 96® Aqueous Non-Radioactive Cell Proliferation Assay (Promega, USA) and the colourimetric changes were determined at 490 nm using a microplate reader. […] Results were recorded by averaging three repeated experiments and each experiment was performed in duplicate.

VK2/E6E7 cell line = assay: cells
Method: as §1

C. albicans SC5314 = assay: Time killing assay; assay type: cell-based, Candida albicans
Method: A fungal suspension was adjusted to a 0.5 McFarland turbidity standard with cell density of 1 × 10^6 to 5 × 10^6 cells/ml. 100 μL of adjusted yeast suspension was exposed to 900 μL of RPMI medium containing peptide, yielding a starting inoculum of approximately 10^5 cells/ml. The solutions were incubated at 37°C with agitation. At the predetermined time interval of 0, 1, 2, 4 and 6 hours, 10 μL or 30 μL of the samples were removed, serially diluted with phosphate-buffered saline (PBS) and plated on SDA plates to allow colony counts after 24 hours of incubation. Controls for yeast growth and antifungal agents were also performed. The lower limit of accurate and reproducible quantitation was 100 CFU/ml. Results were obtained from three independent experiments.

Candida strains = assay: MIC, broth microdilution, range stated over several Candida strains; assay type: cell-based, Candida spp.
Method: (§2) C. albicans strains SC5314 and ATCC 90028, C. krusei ATCC 6258 and C. parapsilosis ATCC 22019 were used in the study. The strains were stored at −80°C in nutrient broth supplemented with 2.0% glycerol stock. Prior to experimentation, each strain was streaked for single colonies on Sabouraud Dextrose (SDA) agar plates and incubated overnight at 37°C.
(§3) Antifungal activity of the designed peptides was determined according to a standardized broth microdilution method (Clinical and Laboratory Standards Institute (CLSI) document M27-A2). Briefly, the yeast colonies from 24- hour-old cultures of Candida species were picked and resuspended in 5 mL of sterile 0.145 mol/L saline and adjusted to cell density of 1 × 10^6 to 5 × 10^6 cells/ml. The yeast stock suspension was then diluted to obtain a starting inoculum of 5.0 × 10^2 to 2.5 × 10^3 cells/ml. […] The drugs were dissolved in DMSO and prepared to a stock concentration of 25 mg/L and 50 mg/L, respectively. […] 100 μL of standardized yeast suspension was then added to each well. Plates were incubated for 48 hours at 37°C. The minimum inhibitory concentration (MIC) was defined as the lowest concentration that inhibited 90% growth of Candida species. The MICs were determined three times and each time in duplicate.

Candida albicans SC 5314 = assay: MIC, broth microdilution (CLSI M27-A2); assay type: cell-based
Method: as §2, §3

[1] = test system: Candida albicans ATCC 90028; assay: MIC, broth microdilution (CLSI M27-A2); assay type: cell-based
Method: as §2, §3

Candida krusei ATCC 6258 = assay: MIC, broth microdilution (CLSI M27-A2); assay type: cell-based
Method: as §2, §3

[2] = test system: Candida parapsilosis ATCC 22019; assay: MIC, broth microdilution (CLSI M27-A2); assay type: cell-based
Method: as §2, §3

human erythrocytes = assay: Haemolytic assay; assay type: cell-based
Method: Freshly collected human blood with heparin was centrifuged to remove the buffy coat. The erythrocytes were washed three times with PBS, centrifuged for 10 min at 2000 rpm at 10°C, and resuspended in PBS to 4% (vol/vol). […] PBS and 0.1% Triton X-100 were used as agents to induce 0 and 100% haemolysis, respectively. Plates were incubated for 1 hour at 37°C and centrifuged at 2000 rpm for 10 min. The supernatant (100 μL) was transferred to a 96-well flat-bottomed polystyrene plate, and the release of haemoglobin was monitored by measuring the absorbance at 560 nm using a microplate reader. Results were repeated three times and each time in duplicate. The percentage of haemolysis was calculated using the following formula: [drawing 2] where Ap and A100 represent the absorbance of erythrocytes treated with peptide and 0.1% Triton X-100. A0 is the absorbance of erythrocytes without treatment.

[3] = range against C. albicans and C. krusei

Substance	IC50 (Het-1A cell line; 24 h)	IC50 (Het-1A cell line; 48 h)	IC50 (Het-1A cell line; 72 h)	IC50 (VK2/E6E7 cell line; 24 h)	IC50 (VK2/E6E7 cell line; 48 h)	IC50 (VK2/E6E7 cell line; 72 h)	MIC values, range (Candida strains; [3])	Minimum Inhibitory Concentration (MIC) (Candida albicans SC 5314; SC 5314, 48 h)	Minimum Inhibitory Concentration (MIC) ([1]; ATCC 90028, 48 h)	Minimum Inhibitory Concentration (MIC) (Candida krusei ATCC 6258; ATCC 6258, 48 h)	Minimum Inhibitory Concentration (MIC) ([2]; ATCC 22019, 48 h)	Haemolytic activity HC10 (human erythrocytes; red cells of human, 1 h)	Haemolytic activity HC50 (human erythrocytes; red cells of human, 1 h)	% killing (C. albicans SC5314; SC5314, 6 h, 2)	mean log decrease in viable cells (C. albicans SC5314; SC5314, 6 h, 2)	other results
GVIKAAKKVVKVLKKLF-NH2 [Upn-lys6]	7.49 ± 1.77 µg/mL	7.92 ± 1.22 µg/mL	11.20 ± 0.86 µg/mL	9.07 ± 1.92 µg/mL	10.04 ± 3.27 µg/mL	9.87 ± 1.46 µg/mL	32 to 64 µg/mL	32 µg/mL	64 µg/mL	32 µg/mL	16 µg/mL	>256 mg/L	>256 mg/L	–	–	% killing (C. albicans SC5314; SC5314, 4 h, 2): > 99.99%; mean log decrease in viable cells (C. albicans SC5314; SC5314, 4 h, 2): 5.56 ± 0.07 log CFU/mL
GVIKAAKKVVKVLKNLF-NH2 [Upn-lys5]	9.73 ± 1.19 µg/mL	9.83 ± 1.40 µg/mL	15.73 ± 0.39 µg/mL	8.67 ± 2.21 µg/mL	10.28 ± 4.53 µg/mL	9.12 ± 1.20 µg/mL	32 to 64 µg/mL	32 µg/mL	64 µg/mL	32 µg/mL	32 µg/mL	>256 mg/L	>256 mg/L	99.99%	4.95 ± 1.24 log CFU/mL	–
GIWKKWIKKWLNVLKNLF-NH2 [KU2]	5.51 ± 0.44 µg/mL	6.03 ± 0.43 µg/mL	8.89 ± 1.40 µg/mL	5.42 ± 0.49 µg/mL	7.01 ± 0.84 µg/mL	11.38 ± 1.75 µg/mL	–	8 µg/mL	16 µg/mL	16 µg/mL	8 µg/mL	7.33 ± 0.73 mg/L	57.71 ± 9.80 mg/L	99.73%	2.77 ± 0.54 log CFU/mL	MIC values, range (Candida strains; 48 h): 8 to 16 µg/mL
GIWKKWIKKWLKKLLKKLWKKG-NH2 [KABT-AMP, reference compound]	–	–	–	–	–	–	–	–	–	–	–	–	–	–	–	% killing (C. albicans SC5314; 2× MIC, within 4 hours): > 99.99%; mean log decrease in viable cells (C. albicans SC5314; 2× MIC, within 4 hours, RPMI, 37°C, mean ± SD of three experiments): 5.4 ± 0.09 log CFU/mL; MIC values, range (Candida strains; range against four Candida strains (C. albicans and non-albicans species)): 32 to 64 µg/mL; Minimum Inhibitory Concentration (MIC) (Candida albicans SC 5314; C. albicans SC 5314, RPMI 1640-MOPS, 48 h, 37°C, lowest concentration inhibiting 90% growth, three times in duplicate): 32 µg/mL; Minimum Inhibitory Concentration (MIC) ([1]; C. albicans ATCC 90028, RPMI 1640-MOPS, 48 h, 37°C, lowest concentration inhibiting 90% growth, three times in duplicate): 64 µg/mL; Minimum Inhibitory Concentration (MIC) (Candida krusei ATCC 6258; C. krusei ATCC 6258, RPMI 1640-MOPS, 48 h, 37°C, lowest concentration inhibiting 90% growth, three times in duplicate): 64 µg/mL; Minimum Inhibitory Concentration (MIC) ([2]; C. parapsilosis ATCC 22019, RPMI 1640-MOPS, 48 h, 37°C, lowest concentration inhibiting 90% growth, three times in duplicate): 64 µg/mL; Haemolytic activity HC10 (human erythrocytes; concentration causing 10% haemolysis, 1 hour, 37°C, erythrocyte suspension 4% in PBS, three times in duplicate): 4.67 ± 2.09 mg/L; Haemolytic activity HC50 (human erythrocytes; concentration causing 50% haemolysis, 1 hour, 37°C, erythrocyte suspension 4% in PBS, three times in duplicate): 81.23 ± 8.92 mg/L
